Results: ChEMBL document CHEMBL1201862, “PubChem BioAssay data set” (2004)
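Test compounds were applied to cells in 96-well plates for 48 hours at 5 doses. GI50: concentration for 50% inhibition of growth.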 The source made the active and inactive calls. Cut-off read from the data, not from the text of the source: active = GI50 up to about 1.1 µM and inactive = higher.

How the values were obtained:
Test in all cases: growth of human tumour cells (NCI), 48 h
IGROV-1 = tested on: IGROV-1
SNB-19 = tested on: SNB-19
HCT-116 = tested on: HCT-116
ACHN = tested on: ACHN
RXF 393 = tested on: RXF 393
A549 = tested on: A549
CAKI-1 = tested on: CAKI-1
MDA-MB-231 = tested on: MDA-MB-231
SW-620 = tested on: SW-620
NCI-H522 = tested on: NCI-H522
KM12 = tested on: KM12
Malme-3M = tested on: Malme-3M
SN12C = tested on: SN12C
LOX IMVI = tested on: LOX IMVI
UACC-257 = tested on: UACC-257
DU-145 = tested on: DU-145
Hs-578T = tested on: Hs-578T
COLO 205 = tested on: COLO 205
SR = tested on: SR

SMILES	GI50 (IGROV-1)	GI50 (SNB-19)	GI50 (HCT-116)	GI50 (ACHN)	GI50 (RXF 393)	GI50 (A549)	GI50 (CAKI-1)	GI50 (MDA-MB-231)	GI50 (SW-620)	GI50 (NCI-H522)	GI50 (KM12)	GI50 (Malme-3M)	GI50 (SN12C)	GI50 (LOX IMVI)	GI50 (UACC-257)	GI50 (DU-145)	GI50 (Hs-578T)	GI50 (COLO 205)	GI50 (SR)
N#CC[N+]1(Cc2ccccn2)CCCC1.O=S(=O)([O-])c1ccccc1	> 100 µM (inactive)	> 100 µM (inactive)	> 100 µM (inactive)	> 100 µM (inactive)	> 100 µM (inactive)	> 100 µM (inactive)	> 100 µM (inactive)	> 100 µM (inactive)	> 100 µM (inactive)	> 100 µM (inactive)	> 100 µM (inactive)	> 100 µM (inactive)	> 100 µM (inactive)	> 100 µM (inactive)	> 100 µM (inactive)	> 100 µM (inactive)	> 100 µM (inactive)	> 100 µM (inactive)	
O=C(c1ccccc1)c1ccc(N2C(=O)/C(=C/c3ccccc3S)N=C2c2ccccc2)c(N2C(=O)/C(=C/c3ccccc3S)N=C2c2ccccc2)c1	46.9 µM (inactive)	41.5 µM (inactive)	66.4 µM (inactive)	60.4 µM (inactive)		33.2 µM (inactive)	> 100 µM (inactive)	> 100 µM (inactive)	43.2 µM (inactive)		33.3 µM (inactive)		> 100 µM (inactive)	24.9 µM (inactive)	> 100 µM (inactive)	59 µM (inactive)	35 µM (inactive)	60.1 µM (inactive)	30.5 µM (inactive)
O=[N+]([O-])c1cccc([N+](=O)[O-])c1S(=O)(=O)c1ccccc1	1.89 µM (inactive)	18.3 µM (inactive)	1.89 µM (inactive)	2.17 µM (inactive)		19.8 µM (inactive)	2.04 µM (inactive)	18.2 µM (inactive)	2.55 µM (inactive)		16.1 µM (inactive)	2.28 µM (inactive)	3.83 µM (inactive)	1.84 µM (inactive)	13.2 µM (inactive)	6.05 µM (inactive)	20.8 µM (inactive)	6.18 µM (inactive)	1.63 µM (inactive)
Cc1ncc(CO)c(CN)c1O	> 100 µM (inactive)	> 100 µM (inactive)	> 100 µM (inactive)	> 100 µM (inactive)	> 100 µM (inactive)	> 100 µM (inactive)	> 100 µM (inactive)	> 100 µM (inactive)	> 100 µM (inactive)	> 100 µM (inactive)	> 100 µM (inactive)	> 100 µM (inactive)	> 100 µM (inactive)	> 100 µM (inactive)	> 100 µM (inactive)	> 100 µM (inactive)	> 100 µM (inactive)	> 100 µM (inactive)	
O=C(O)c1ccc(C(O)(c2ccccc2)c2ccccc2)cc1	> 100 µM (inactive)	> 100 µM (inactive)	> 100 µM (inactive)	> 100 µM (inactive)		> 100 µM (inactive)	> 100 µM (inactive)	> 100 µM (inactive)		> 100 µM (inactive)	> 100 µM (inactive)	> 100 µM (inactive)	> 100 µM (inactive)	> 100 µM (inactive)	> 100 µM (inactive)	> 100 µM (inactive)	> 100 µM (inactive)	> 100 µM (inactive)	> 100 µM (inactive)
CCCCCCCCCCCCNC(C)=O		16.3 µM (inactive)	17.9 µM (inactive)	23.2 µM (inactive)	18.9 µM (inactive)	27 µM (inactive)	17 µM (inactive)	13.8 µM (inactive)	16.8 µM (inactive)	14 µM (inactive)	17.8 µM (inactive)	17.7 µM (inactive)	16.6 µM (inactive)	6.85 µM (inactive)	23.2 µM (inactive)	30.9 µM (inactive)	14.4 µM (inactive)	17.7 µM (inactive)	
[O-]c1c[n+](CCCC[n+]2cc([O-])on2)no1	> 100 µM (inactive)	> 100 µM (inactive)	> 100 µM (inactive)	> 100 µM (inactive)	> 100 µM (inactive)	> 100 µM (inactive)	> 100 µM (inactive)	> 100 µM (inactive)	> 100 µM (inactive)	> 100 µM (inactive)	> 100 µM (inactive)	> 100 µM (inactive)	> 100 µM (inactive)	> 100 µM (inactive)	> 100 µM (inactive)	> 100 µM (inactive)	> 100 µM (inactive)	> 100 µM (inactive)	
COC1/C=C/C(C)C(C(C)C(OC)C(C)CCC(=O)C(C)C(CC(=O)O)OC)OC(=O)/C=C/C=C(\C)CC(OC)C(OC)C2=CC(=O)O[C@@H](C(C)C(OC)CC(OC)/C=C/C(C)C(O)C1)[C@H]2O (stereo partly specified)	0.0129 µM (active)	0.217 µM (active)	0.00714 µM (active)	0.0473 µM (active)		0.0419 µM (active)	0.033 µM (active)	0.083 µM (active)	0.0242 µM (active)		0.0512 µM (active)		0.406 µM (active)	0.0188 µM (active)	0.0993 µM (active)	0.053 µM (active)		0.0399 µM (active)	0.0622 µM (active)
